{
  "source": "patent US6890954B1",
  "about": "“Uses of 2-bromopalmitate in the treatment of autoimmune disease” (priority 1999, dated 2005)",
  "format_in_all_cases": "cell-based",
  "key": {"Fyn(16)-eGFP": {"test_system": "Fyn(16)-eGFP", "assay": "Localization of Fyn(16)-eGFP in COS-1 cells (fluorescence microscopy, P100/S100 fractionation)", "procedure": "COS-1 cells were transfected with a Fyn(16)-eGFP construct (12) and seeded onto 25-mm glass coverslips 2 days prior to the experiment. Cells were treated overnight with or without 2 bromopalmitate as described above. Plates were washed with PBS and coverslips were mounted onto glass slides in PBS and observed with a 40× and 100×oil immersion lens on a Zeiss Axiophot 2 microscope and photographed with Kodak TMAX 400.\nTo investigate the effect of 2-bromopalmitate on the intracellular localization of Fyn more precisely, COS-1 cells expressing a Fyn(16)-eGFP construct were examined by immunofluorescence. This construct contains the first 16 amino acids of Fyn fused in frame to eGFP; the chimera is targeted to the plasma membrane and detergent resistant microdomains (12). Cells were cultured with no treatment, with 2-bromopalmitate or with 2-hydroxymyristate, a known myristoylation inhibitor (40,41), as described above, and were examined live by fluorescence microscopy.\nAnalysis of the subcellular localization of Fyn(16)-eGFP in the presence of 2-bromopalmitate and 2-hydroxymyristate was performed as described above for steady-state Fyn. As depicted in FIG. 2B, in the absence of treatment, 80% of Fyn(16)-eGFP Fyn was membrane bound, whereas in cells treated with 2-bromopalmitate and 2-hydroxymyristate, 65% and 78% of Fyn(16)-eGFP were cytosolic, respectively."}, "GAP43(10)-Fyn": {"test_system": "GAP43(10)-Fyn", "assay": "Membrane binding of GAP43(10)-Fyn chimera in COS-1 cells", "conditions": "COS-1, 2-bromopalmitate overnight, 2 hours label", "procedure": "For analysis of newly synthesized Fyn, cells were cultured overnight as descibed above, then starved for 1 hr in DMEM minus methionine and cysteine containing 2% dialyzed FBS, 0.5% defatted BSA with or without 100 μM 2-bromopalmitate. Cells were labeled for 5 minutes with Trans^35S-Label (ICN, Irvine, Calif.), then fractionated as described above. Gels were treated for 20 minutes with 1M salicylic acid prior to drying. The Gαo(10)-Fyn chimera was labeled for 5 min and GAP-43 Fyn chimera was labeled for 2 hours and fractionated according to the above conditions.\nEach of these three sequences was appended onto the Fyn protein. Gαo(10)-Fyn and GAP43(10)-Fyn are chimeric constructs with the first 10 amino acids of Gαo or GAP-43, respectively, in place of the first 10 amino acids of wt Fyn. These constructs have been previously described (12,13). In addition, the H-Ras tail was fused to the C-terminus of a non-acylated Fyn mutant (G2A,C3SFyn-HRas). This construct contains full length Fyn with mutations in the N-terminal myristoylation and palmitoylation sites, but with the C-terminus of H-Ras available for prenylation and palmitoylation."}, "LAT": {"test_system": "LAT", "assay": "DRM (raft) localization in activated Jurkat cells, sucrose gradient: LAT", "conditions": "100 μM 3 hours, OKT3 activated, control 71%", "procedure": "Isolation of Triton X-100 resistant and soluble fractions was carried out as described previously (12). Isolation of detergent resistant microdomains by sucrose gradients were carried out as follows (19): Jurkat cells (5×10^7) were treated with 2-bromopalmitate, activated with OKT3 mAb as described above, and lysed in 1 ml lysis buffer (25 mM MES pH 6.5, 150 mM NaCl, 0.5% Triton X-100, 1 mM Na3VO4) supplemented with protease inhibitors for 30 minutes at 0° C. After homogenizing 10 times with a loose fit Dounce homogenizer, lysates were mixed with 1 ml 85% sucrose in MBS (25 mM MES pH 6.5, 150 mM NaCl), and overlayered with 6 ml 30% sucrose in MBS, then with 4 ml 5% sucrose in MBS. Following centrifugation for 16 hours at 145,000 g in an SW40 rotor, 1 ml fractions were collected and analyzed by PAGE and immunoblotting with anti-Fyn, anti-LAT, or anti-Lck antibodies.\nThe ability of 2-bromopalmitate to inhibit localization of palmitoylated proteins to detergent resistant microdomains in activated Jurkat cells was examined next. Cells were either left untreated or treated with 100 μM 2-bromopalmitate for 3 hours, washed, resuspended in serum-free media, and the TCR was activated with OKT3 mAb. Activated cells were extracted with Triton X-100 containing buffer. […] Each fraction was analyzed by immunoblotting with specific antibodies. […]"}, "Jurkat T cells": {"test_system": "Jurkat T cells", "assay": "Calcium mobilization assay in Jurkat T cells (fluo-3, flow cytometry)", "procedure": "Jurkat cells were treated with 2-bromopalmitate as described above. The cells (2×10^5) were collected by centrifugation and resuspended at 2×10^6 cells/ml in RPMI containing in 50 μM fluo-3 with or without 100 μM 2-bromopalmitate for 30 minutes at room temperature. Cells loaded with fluo-3 were then collected by centrigation, washed with Hank's Buffered Saline Solution (5.4 mM KCl, 0.3 mM Na2HPO4, 0.4 mM KH2PO4, 4 mM NaHCO3, 1.3 mM CaCl2, 0.5 mM MgCl2, 0.6 mM MgSO4, 137 mM NaCl, 5.6 mM glucose, 20 mM Hepes pH 7.4) and resuspended in the same buffer at 5×10^5 cells/ml at 37° C. To initiate calcium flux, the cells were activated with OKT3 antibody as described above, and analyzed for free calcium ion by measurement of fluo-3 fluoresence emission by flow cytometry.\nJurkat cells were incubated with or without 2-bromopalmitate, washed and stained with the fluorescent dye fluo-3 (50 μM). Cells were activated with OKT3 antibody and analyzed by flow cytometry. […] No effect of 2-bromopalmitate on cells incubated in the absence of OKT3 was noted."}},
  "data": [
    {"smiles": "CCCCCCCCCCCCCCC(Br)C(=O)O", "note": "(stereo not drawn) [2-bromopalmitate]", "values": [
      {"measurement": "Fyn(16)-eGFP cytosolic", "setting": "Fyn(16)-eGFP; COS-1, 100 μM overnight, P100/S100, untreated 80% membrane bound", "value": 65, "unit": "%"},
      {"measurement": "Fyn(16)-eGFP distribution by fluorescence microscopy", "setting": "Fyn(16)-eGFP; COS-1 live cells, 100 μM overnight", "value": "reduced plasma membrane staining"},
      {"measurement": "inhibition of membrane binding of GAP43(10)-Fyn", "setting": "GAP43(10)-Fyn", "value": "to the same extent as wt Fyn"},
      {"measurement": "LAT associated with detergent resistant microdomains", "setting": "LAT", "value": 41, "unit": "%"},
      {"measurement": "calcium flux in response to T cell receptor activation", "setting": "Jurkat T cells; 100 μM, OKT3 activated", "value": "shut down almost completely"},
      {"measurement": "effect on calcium in cells incubated in the absence of OKT3", "setting": "Jurkat T cells; no OKT3", "value": "No effect"}
    ]}
  ]
}
